Source: US6432959B1, “Inhibitors of farnesyl-protein transferase” (Schering Corporation, priority 1998, dated 2002)

How the values were obtained:
[1] = target: T1, partially purified rat brain farnesyl protein transferase (FPT) (Rattus norvegicus, UniProt Q02293+Q04631); test: FPT IC50, in vitro enzyme assay (inhibition of Ras-CVLS farnesylation); type: biochemical; conditions: inhibition of Ras-CVLS farnesylation by partially purified rat brain FPT; value is a range stated for a group of compounds
T1 construct: partially purified rat brain farnesyl protein transferase (FPT); from tissue; host or cells: rat brain
Experimental: 1. In vitro enzyme assays: FPT IC50 (inhibition of farnesyl protein transferase, in vitro enzyme assay) are determined by the methods disclosed in WO/10515 or WO95/10516.

In the case of `CC(C)(C)NC(=O)N1CCN(Cc2ccccc2)C[C@@H]1C(=O)N(CCCn1ccnc1)Cc1ccccc1` [Example 28T, N1-(1,1-dimethylethyl)-N2-[3-(1H-imidazol-1-yl)propyl]-N2,4-bis(phenylmethyl)-1,2(R)-piperazinedicarboxamide], the IC50 [1] is reported as 0.18 to 21 nM and the melting point is reported as 57.8 °C.
